Measurements: PubChem BioAssay AID1918996 (Molecular Pharmacology Branch, DTP, NCI, 2023)
pIC50: −log10 of the molar value.

Test system: 349418-098-R-PDC complex spheroid growth
Assay: Anticancer human tumor 349418-098-R-PDC patient-derived lung adenocarcinoma cell line growth inhibition [AhR]
Conditions: for pIC50: curve of first compound; for viability, T/C: stronger effect = lower value
Outline: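 Spheroids combined tumor cells with HUVEC endothelial cells and human MSCs as stroma. AhR antagonists were paired with standard or investigational drugs, each dosed in half-log steps down from near clinical Cmax, or from 10 microM where Cmax was unknown.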

[1] = second compound 0.1 µM, first compound 0.0316 µM
[2] = second compound 0.1 µM, first compound 0.1 µM
[3] = second compound 0.316 µM, first compound 0.0316 µM
[4] = second compound 0.316 µM, first compound 0.1 µM
[5] = second compound 1 µM, first compound 0.0316 µM
[6] = second compound 1 µM, first compound 0.1 µM
[7] = second compound 3.16 µM, first compound 0.0316 µM
[8] = second compound 3.16 µM, first compound 0.1 µM
[9] = second compound 10 µM, first compound 0.0316 µM
[10] = second compound 10 µM, first compound 0.1 µM
[11] = second compound 0.1 µM, first compound 0.316 µM
[12] = second compound 0.1 µM, first compound 1 µM
[13] = second compound 0.1 µM, first compound 3.16 µM
[14] = second compound 0.1 µM, first compound 10 µM
[15] = second compound 0.316 µM, first compound 0.316 µM
[16] = second compound 0.316 µM, first compound 1 µM
[17] = second compound 0.316 µM, first compound 3.16 µM
[18] = second compound 0.316 µM, first compound 10 µM
[19] = second compound 1 µM, first compound 0.316 µM
[20] = second compound 1 µM, first compound 1 µM
[21] = second compound 1 µM, first compound 3.16 µM
[22] = second compound 1 µM, first compound 10 µM
[23] = second compound 3.16 µM, first compound 0.316 µM
[24] = second compound 3.16 µM, first compound 1 µM
[25] = second compound 3.16 µM, first compound 3.16 µM
[26] = second compound 3.16 µM, first compound 10 µM
[27] = second compound 10 µM, first compound 0.316 µM
[28] = second compound 10 µM, first compound 1 µM
[29] = second compound 10 µM, first compound 3.16 µM
[30] = second compound 10 µM, first compound 10 µM
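Further: spheroids exposed to agents for seven days before luminescence viability read.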
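Wherever viability, T/C is given: spheroids also contain HUVEC endothelial cells and human MSC stroma.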

Structure (SMILES) | pIC50 (second compound 0.1 µM) | pIC50 (second compound 0.316 µM) | pIC50 (second compound 1 µM) | pIC50 (second compound 3.16 µM) | pIC50 (second compound 10 µM) | viability, T/C [1] | viability, T/C [2] | viability, T/C [3] | viability, T/C [4] | viability, T/C [5] | viability, T/C [6] | viability, T/C [7] | viability, T/C [8] | viability, T/C [9] | viability, T/C [10] | viability, T/C [11] | viability, T/C [12] | viability, T/C [13] | viability, T/C [14] | viability, T/C [15] | other results
CC[C@@]1(O)C(=O)OCc2c1cc1n(c2=O)Cc2cc3c(CN(C)C)c(O)ccc3nc2-1 + Cc1ccccc1N=Nc1ccc(NC(=O)c2ccnn2C)c(C)c1 | 7.78 | 7.95 | 7.87 | 8.08 | 8.21 | 29.3% | 13% | 25.5% | 17% | 22.5% | 17.2% | 19.1% | 15.4% | 22.2% | 17.5% |  |  |  |  |  | viability, T/C (second compound 0.1 µM, first compound 0.000316 µM): 116%; viability, T/C (second compound 0.1 µM, first compound 0.001 µM): 101%; viability, T/C (second compound 0.1 µM, first compound 0.00316 µM): 112%; viability, T/C (second compound 0.1 µM, first compound 0.01 µM): 65.9%; viability, T/C (second compound 0.316 µM, first compound 0.000316 µM): 95%; viability, T/C (second compound 0.316 µM, first compound 0.001 µM): 104%; viability, T/C (second compound 0.316 µM, first compound 0.00316 µM): 98.5%; viability, T/C (second compound 0.316 µM, first compound 0.01 µM): 52.8%; viability, T/C (second compound 1 µM, first compound 0.000316 µM): 130%; viability, T/C (second compound 1 µM, first compound 0.001 µM): 76.9%; viability, T/C (second compound 1 µM, first compound 0.00316 µM): 98%; viability, T/C (second compound 1 µM, first compound 0.01 µM): 57.3%; viability, T/C (second compound 3.16 µM, first compound 0.000316 µM): 64.5%; viability, T/C (second compound 3.16 µM, first compound 0.001 µM): 63.3%; viability, T/C (second compound 3.16 µM, first compound 0.00316 µM): 79.1%; viability, T/C (second compound 3.16 µM, first compound 0.01 µM): 46.5%; viability, T/C (second compound 10 µM, first compound 0.000316 µM): 66.8%; viability, T/C (second compound 10 µM, first compound 0.001 µM): 65.1%; viability, T/C (second compound 10 µM, first compound 0.00316 µM): 68.7%; viability, T/C (second compound 10 µM, first compound 0.01 µM): 38.2%
COc1cc(C2c3cc4c(cc3C(OC3OC5COC(C)OC5C(O)C3O)C3COC(=O)C23)OCO4)cc(OC)c1O (stereo not given) + Cc1ccccc1N=Nc1ccc(NC(=O)c2ccnn2C)c(C)c1 | 6.53 | 6.61 | 6.66 | 6.83 | > 7.50 | 89.6% | 98.8% | 103% | 71.3% | 90.4% | 76.6% | 70.1% | 56.9% | 46.4% | 44.6% | 47.5% | 20.2% | 15.3% | 13.3% | 47.2% | viability, T/C [16]: 19.9%; viability, T/C [17]: 14.6%; viability, T/C [18]: 13.7%; viability, T/C [19]: 36.5%; viability, T/C [20]: 23.9%; viability, T/C [21]: 16.6%; viability, T/C [22]: 14.6%; viability, T/C [23]: 36.6%; viability, T/C [24]: 19.1%; viability, T/C [25]: 16.3%; viability, T/C [26]: 16%; viability, T/C [27]: 30.5%; viability, T/C [28]: 22.4%; viability, T/C [29]: 17.5%; viability, T/C [30]: 15.9%
Nc1ccn(C2OC(CO)C(O)C2(F)F)c(=O)n1 (stereo not given) + Cc1ccccc1N=Nc1ccc(NC(=O)c2ccnn2C)c(C)c1 | > 7.50 | > 7.50 | > 7.50 | > 7.50 | > 7.50 | 15.1% | 14.6% | 15.9% | 13.5% | 15.7% | 14.8% | 14.9% | 16.4% | 17.9% | 17.4% | 13.6% | 12.1% | 11.3% | 8.74% | 14.6% | viability, T/C [16]: 13.1%; viability, T/C [17]: 11.2%; viability, T/C [18]: 9.73%; viability, T/C [19]: 15.3%; viability, T/C [20]: 11.7%; viability, T/C [21]: 14.3%; viability, T/C [22]: 11.4%; viability, T/C [23]: 13.1%; viability, T/C [24]: 12.7%; viability, T/C [25]: 13%; viability, T/C [26]: 10.1%; viability, T/C [27]: 16.7%; viability, T/C [28]: 14.1%; viability, T/C [29]: 13.4%; viability, T/C [30]: 12.2%
